Patent publication US8282938B2 (priority 2008, dated 2012)

Legend:
[1] = tested on: HLA-A*2402-restricted cytotoxic T lymphocytes; set-up: species or system transgenic mice expressing the HLA-A*2402 molecule (A24Tg); conditions: mouse, in vivo
[2] = tested on: HLA-A*0201-restricted cytotoxic T lymphocytes; set-up: species or system mice expressing the HLA-A*0201 molecule (HHD mice); conditions: mouse, in vivo

Sequence	CTL activity [1]	Specific killing [1] [%]	CTL activity [2]	Specific killing [2] [%]
SFSFGGFTF [PB2_322]	high CTL activity	38	–	–
TYFEKVERL [PB2_117]	low activity	13	–	–
GMFNMLSTV [PB1_410]	–	–	high CTL activity	87
SYINRTGTF [PB1_482]	high CTL activity	56	–	–
IFLARSALI [NP_257]	low activity	16	–	–
SYLIRALTL [PB1_216]	high CTL activity	22	–	–
YYLEKANKI [PA_130]	high CTL activity	95	–	–
EWFRNVLSI [PB1_331]	low activity	7	–	–
KTTPRPLRL [PA_262]	high CTL activity	58	–	–
LWILDRLFF [M2_40]	low activity	10	–	–
CFNPMIVEL [PA_8]	low activity	10	–	–
RYTKTTYWW [PB1_430]	high CTL activity	96	–	–
TYQWIIRNW [PB2_549]	high CTL activity	96	–	–
SLLTEVETL [M2_2]	low activity	–	–	–
MYQKCCTLF [PB1_688]	high CTL activity	89	–	–
